{"source": "patent US11684614B2", "about": "“Formulations of hydroxypyridonate actinide/lanthanide decorporation agents” (priority 2017, dated 2023)", "key": {"[1]": {"assay": "Related substance assay / chromatographic API purity of prototype formulations", "type": "physicochemical", "description": "Analytical Method I for Related Substance Assay (TABLE 2.5):\nThis method was previously established and validated (see 3,4,3-L1(1,2-HOPO)—Excipient Compatibility Study; EXAMPLE 1). Suitability was therefore not re-evaluated as part of this study.\nAnalytical Method I for Related Substance Assay (TABLE 2.6):\nThe related substances, estimated as area (%) from the chromatograms, and the chromatographic purity of 3,4,3-L1(1,2-HOPO) in selected prototype formulations are listed in TABLE 2.28."}, "[2]": {"type": "in vivo, Swiss-Webster mice", "details": "for urinary excretion, of administered dose: rodents (mice)", "description": "(§1) Formulated material was used in the single dose in vivo ADME characterization studies in Sprague Dawley rats and Swiss-Webster mice with 14C-labeled 3,4,3-L1(1,2-HOPO).\n(§2) Pharmacokinetic parameters and disposition/biodistribution of 3,4,3-L1(1,2-HOPO) were characterized in vivo (with the aid of two 14C labels on the spermine backbone of the parent product) in two non-GLP studies using Swiss-Webster mice and Sprague Dawley rats. The study designs for these two studies are shown in TABLE 5.1 and TABLE 5.2, respectively. Groups of six mice (3 male, 3 female) were given a single dose of [14C]-3,4,3-L1(1,2-HOPO) via iv, ip, or po routes, respectively. An additional group of six mice (3 male, 3 female) were administered the 14C-labeled API with permeability enhancer (10% sodium oleate) by oral gavage (po). Similarly, groups of six rats (3 male, 3 female) were administered a single iv dose of the 14C-labeled API or a single po dose of the 14C-labeled API with 10% sodium oleate. In each of these studies, samples were collected at scheduled time points up to 24 hr post-dose and analyzed for 14C content using liquid scintillation counting. Blood, liver, kidney, feces and urine were collected and analyzed from the mice. Blood, brain, liver, kidney, lungs, spleen, skeletal muscle tissues, gastrointestinal (GI) tract samples, carcasses, feces, and urine were collected and analyzed from the rats."}, "[3]": {"assay": "Radiolabeled in vivo ADME study in rats (with metabolite profiling)", "design": "species or system Sprague Dawley rats", "details": "for urinary excretion, of administered dose: rodents (rats)", "description": "as §1, §2\nThe principal excretion routes of radioactivity from [14C]-3,4,3-L1(1,2-HOPO) were both the feces and urine after an iv dose based on high levels of radioactivity in both feces and urine as well as significant radioactivity in the excretory tissues, kidney, liver and GI tract. Fecal elimination by 24 hr post-dose accounted for approximately 62% and 16% of the iv administered dose in mice and rats, respectively. Urinary excretion accounted for approximately 12-23% of the iv administered dose in these rodents with renal excretion of 14C beginning as early as 5 min after iv injection in mice. In contrast, following oral administration, excretion was primarily by the fecal route accounting for approximately 89% and 41% of the orally administered dose in mice and rats, respectively, by 24 h post-dose. Urinary excretion accounted for <1% of the orally administered dose and low radioactivity levels were detected in systemic circulation and in tissues except for the GI tract. […] Based on the colonic transit time in rats of 15.5 hr, 11 the radioactivity found in the feces in the first 24 hr after po administration is most likely unabsorbed compound. […] Metabolite profiling of [14C]-3,4,3-L1(1,2-HOPO) was performed using an HPLC method on selected urine, feces, kidney, liver, and lung samples from the Sprague Dawley rat. Only samples containing the highest total radioactive levels were selected for analysis. A total of 11 peaks were detected, of which 6 were from uncharacterized interactions between the test article and matrix components because they were also seen in spiked blank matrix controls. These 6 peaks are not metabolites and are considered alternate forms of the parent compound (e.g. complexes of the test article with metallic ions). The 5 other radioactive species (peaks P1-P4 and P10) are considered potential metabolites. Feces-specific metabolite peaks P2, P3, and P10 represented a combined 10.5-11.4% and 0.5-4.2% of the administered dose after po or iv administration, respectively, in rats. Peak P10 was the most abundant peak in all samples analyzed. It represented up to 10% of the administered dose in feces after po administration while the other two feces-specific peaks represented <1% of the administered dose after po administration. Peak P10 was also the predominant, and sometimes the only, peak in feces samples after iv administration. […]"}}, "note": "Like-named read-outs stand apart in the source and are kept apart here.", "data": [{"molecule": "O=C(NCCCN(CCCCN(CCCNC(=O)c1cccc(=O)n1O)C(=O)c1cccc(=O)n1O)C(=O)c1cccc(=O)n1O)c1cccc(=O)n1O", "note": "[Drug Substance Control]", "values": [{"measurement": "Chromatographic Purity of 3,4,3-LI(1,2-HOPO)", "setting": "[1]; 3,4,3-LI(1,2-HOPO) peak", "value": "97.45 area (%)"}, {"measurement": "Related Substances, Unknown peak", "setting": "[1]; RRT 0.59", "value": "0.01 area (%)"}, {"measurement": "Related Substances, Unknown peak", "setting": "[1]; RRT 0.61", "value": "0.01 area (%)"}, {"measurement": "Related Substances, Unknown peak", "setting": "[1]; RRT 0.62", "value": "0.01 area (%)"}, {"measurement": "Related Substances, Unknown peak", "setting": "[1]; RRT 0.87", "value": "0.11 area (%)"}, {"measurement": "Related Substances, Unknown peak", "setting": "[1]; RRT 0.89", "value": "0.13 area (%)"}, {"measurement": "Related Substances, Unknown peak", "setting": "[1]; RRT 1.02", "value": "0.08 area (%)"}, {"measurement": "Related Substances, Unknown peak", "setting": "[1]; RRT 1.11", "value": "0.04 area (%)"}, {"measurement": "Related Substances, Unknown peak", "setting": "[1]; RRT 1.27", "value": "0.17 area (%)"}, {"measurement": "Related Substances, Unknown peak", "setting": "[1]; RRT 1.30", "value": "0.10 area (%)"}, {"measurement": "Related Substances, Unknown peak", "setting": "[1]; RRT 1.39", "value": "0.20 area (%)"}, {"measurement": "Related Substances, Unknown peak", "setting": "[1]; RRT 1.40", "value": "0.04 area (%)"}, {"measurement": "Related Substances, Unknown peak", "setting": "[1]; RRT 1.46", "value": "0.60 area (%)"}, {"measurement": "Related Substances, Unknown peak", "setting": "[1]; RRT 1.74", "value": "0.15 area (%)"}, {"measurement": "Related Substances, Unknown peak", "setting": "[1]; RRT 1.89", "value": "0.18 area (%)"}, {"measurement": "Related Substances, Unknown peak", "setting": "[1]; RRT 2.17", "value": "0.33 area (%)"}, {"measurement": "Related Substances, Unknown peak", "setting": "[1]; RRT 2.30", "value": "0.05 area (%)"}, {"measurement": "Related Substances, Unknown peak", "setting": "[1]; RRT 2.58", "value": "0.25 area (%)"}, {"measurement": "Related Substances, Unknown peak", "setting": "[1]; RRT 2.79", "value": "0.11 area (%)"}]}, {"molecule": "[14C]-3,4,3-L1(1,2-HOPO)", "values": [{"measurement": "time of highest level of radioactivity in kidneys and liver", "setting": "[2]; ip, mice", "value": 1, "unit": "h"}, {"measurement": "fecal elimination, of administered dose", "setting": "[2]; iv, by 24 hr post-dose, mice", "value": "approximately 62%"}, {"measurement": "AUC (plasma radioactivity)", "setting": "[2]; iv, female mice", "value": 66.2, "unit": "hr Pg-eq/ml"}, {"measurement": "C0 (plasma radioactivity)", "setting": "[2]; iv, female mice", "value": 342, "unit": "Pg-eq/mL"}, {"measurement": "AUC (plasma radioactivity)", "setting": "[2]; iv, male mice", "value": 41.7, "unit": "hr Pg-eq/ml"}, {"measurement": "C0 (plasma radioactivity)", "setting": "[2]; iv, male mice", "value": 76, "unit": "Pg-eq/mL"}, {"measurement": "time of highest level of radioactivity in kidneys and liver", "setting": "[2]; iv, mice", "value": 1, "unit": "h"}, {"measurement": "urinary excretion, of administered dose", "setting": "[2]; iv", "value": "12-23%"}, {"measurement": "oral bioavailability improvement with sodium oleate", "setting": "[2]; mice", "value": "2- to 3 fold"}, {"measurement": "fecal excretion, of administered dose", "setting": "[2]; oral, by 24 h post-dose, mice", "value": "approximately 89%"}, {"measurement": "bioavailability of total radioactivity", "setting": "[2]; oral, mice", "value": "< 3", "unit": "%"}, {"measurement": "urinary excretion, of administered dose", "setting": "[2]; oral", "value": "< 1", "unit": "%"}, {"measurement": "general rank order of tissue concentrations", "setting": "[3]; iv, 2 hr time point, rats", "value": "kidney>liver>lung>brain spleen muscle"}, {"measurement": "fecal elimination, of administered dose", "setting": "[3]; iv, by 24 hr post-dose, rats", "value": "~16", "unit": "%"}, {"measurement": "AUC (plasma radioactivity)", "setting": "[3]; iv, female rats", "value": 211, "unit": "hr Pg-eq/ml"}, {"measurement": "C0 (plasma radioactivity)", "setting": "[3]; iv, female rats", "value": 422, "unit": "Pg-eq/ml"}, {"measurement": "AUC (plasma radioactivity)", "setting": "[3]; iv, male rats", "value": 354, "unit": "hr Pg-eq/ml"}, {"measurement": "C0 (plasma radioactivity)", "setting": "[3]; iv, male rats", "value": 463, "unit": "Pg-eq/ml"}, {"measurement": "feces-specific metabolite peaks P2, P3, and P10 combined, of the administered dose", "setting": "[3]; iv, rats", "value": "0.5-4.2%"}, {"measurement": "metabolite peak P1 in urine, of the administered dose", "setting": "[3]; iv, rats", "value": "≤ 0.4", "unit": "%"}, {"measurement": "time of highest level of radioactivity in kidneys and liver", "setting": "[3]; iv, rats", "value": 2, "unit": "h"}, {"measurement": "urinary excretion, of administered dose", "setting": "[3]; iv", "value": "12-23%"}, {"measurement": "fecal excretion, of administered dose", "setting": "[3]; oral, by 24 h post-dose, rats", "value": "~41", "unit": "%"}, {"measurement": "bioavailability of total radioactivity", "setting": "[3]; oral, rats", "value": "< 3", "unit": "%"}, {"measurement": "putative major metabolite (P10), of an administered oral dose", "setting": "[3]; oral, rats", "value": "~10", "unit": "%"}, {"measurement": "urinary excretion, of administered dose", "setting": "[3]; oral", "value": "< 1", "unit": "%"}, {"measurement": "feces-specific metabolite peaks P2, P3, and P10 combined, of the administered dose", "setting": "[3]; po, rats", "value": "10.5-11.4%"}, {"measurement": "other two feces-specific peaks, of the administered dose", "setting": "[3]; po, rats", "value": "< 1", "unit": "%"}, {"measurement": "peak P10 in feces, of the administered dose", "setting": "[3]; po, rats", "value": "up to 10%"}]}]}
